Data on eight compounds can be found in the supplement of paper PMC11061612.

Test in all cases: Bliss excess, mean over the matrix (fraction); higher = more synergy
The subject of assay [1] is HPAC (Pancreatic Carcinoma). In a few lines:
(§1)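 Bliss excess equals the observed combination effect minus the expected value EA + EB − EA·EB, where EA and EB are the effects of each agent alone. Combination Emax is the second-highest inhibition within the matrix. Inhibition was scaled from CellTiter-Glo 2.0 luminescence, with 0 set by vehicle wells and 1 by blank wells, after 72 hours of two-drug dosing of cells plated in 1536-well plates.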

For assay [2], the system named is LS-513 (Colorectal Carcinoma). Put shortly:
as §1

The subject of another assay is IGR-1 (Melanoma). Put shortly: as §1
Assay [3] relates to EM-2 (Chronic Myelogenous Leukemia). In a few lines:
as §1

In assay [4] the test system is NALM-6 (B-Lymphoblastic Leukemia). Put shortly:
as §1

The test system of assay [5] is SW1088 (Low Grade Glioma). In a few lines:
as §1

Assay [6] deals with COR-L23 (Non-Small Cell Lung Carcinoma). In a few lines:
as §1

For assay [7], the system named is NCI-H1793 (Lung Adenocarcinoma). Put shortly: as §1
Assay [8] concerns MDA-MB-231 (Breast Carcinoma). In a few lines:
as §1

The test system of assay [9] is HT-29 (Colorectal Carcinoma). In a few lines:
as §1

For assay [10], the system named is COR-L95 (Small Cell Lung Carcinoma). Put shortly: as §1
Assay [11] concerns SW1783 (Low Grade Glioma). Put shortly:
as §1

For assay [12], the system named is SW780 (Bladder Carcinoma). Put shortly: as §1
The test system of assay [13] is DB (B-Cell Non-Hodgkin's Lymphoma). Put shortly: as §1
In assay [14] the test system is HCC2157 (Breast Carcinoma). In a few lines:
as §1

The test system of assay [15] is DOV13 (Ovarian Carcinoma). Put shortly: as §1
Assay [16] concerns SW1990 (Pancreatic Carcinoma). In a few lines: as §1
Assay [17] relates to NCI-H1781 (Lung Adenocarcinoma). In a few lines:
as §1

Assay [18] relates to LU-99A (Non-Small Cell Lung Carcinoma). Put shortly:
as §1

Assay [19] has as its system NCI-H1694 (Small Cell Lung Carcinoma). In a few lines:
as §1

Consider `COc1cc2ncnc(Nc3ccc(F)c(Cl)c3)c2cc1OCCCN1CCOCC1` [Gefitinib] + CC(C)n1c(=O)n(C)c2cnc3cc(F)c(-c4ccc(OCCCN5CCCCC5)nc4)cc3c21 [AZD1390] (first compound max 10 µM, 7x7, partner max 0.3 µM), for which the Bliss excess in assay [1] is -0.0607; in assay [2], -0.0362; in the assay with IGR-1 (Melanoma), -0.006; in assay [3], -0.0507; in assay [4], -0.0643; in assay [5] it was -0.0688. Further, the Bliss excess in assay [6] is -0.069; in [7], -0.0406; in assay [8], -0.0659; in assay [9], -0.0512; in [10] it was -0.0119; in assay [11], -0.0571. Besides, the Bliss excess in [12] was -0.0642; in assay [13], 0.0332; in assay [14] it was -0.0136; in assay [15] it was -0.1; in assay [16], -0.0441; in assay [17], -0.0801.
`CN(C)CCCOc1ccc(-c2ccc3ncc4c(c3c2)n(C2CCOCC2)c(=O)n4C)cn1` [AZD0156] + O=C(c1cc(Cc2n[nH]c(=O)c3ccccc23)ccc1F)N1CCN(C(=O)C2CC2)CC1 [Olaparib] (first compound max 3 µM, partner max 3 µM): the Bliss excess in assay [1] was 0.0152; in [2], 0.0071; in the assay on IGR-1 (Melanoma), -0.0006; in assay [3], 0.0753; in [4], 0.173; in assay [18], -0.0145. In addition, the Bliss excess in [5] was 0.022; in assay [6], -0.0155; in [7], 0.0074; in assay [8], 0.0221; in assay [9], 0.015; in assay [10] it was -0.11. For the same compound, the Bliss excess in assay [11] was 0.007; in assay [12] it was -0.0007; in assay [13], 0.149; in assay [14], 0.0313; in assay [15], 0.0258; in assay [16], -0.0285. The Bliss excess in [17] is 0.0077.
For `C=CCn1c(=O)c2cnc(Nc3ccc(N4CCN(C)CC4)cc3)nc2n1-c1cccc(C(C)(C)O)n1` [AZD1775] + C1CN(CCC1(C(=O)N[C@@H](CCO)C2=CC=C(C=C2)Cl)N)C3=NC=NC4=C3C=CN4 [Capivasertib] (first compound max 3 µM, partner max 3 µM), the Bliss excess in assay [1] is -0.0611; in [2] it was -0.0514; in the assay with IGR-1 (Melanoma) it was 0.011; in assay [3] it was -0.0724; in assay [4], -0.0371; in assay [18], -0.0106. The Bliss excess in assay [5] is -0.0707; in assay [6] it was 0.0185; in assay [7] it was 0.0373; in [8] it was -0.0181; in assay [9], -0.0357; in assay [10], 0.0297. Besides, the Bliss excess was -0.0787 in [11]; 0.0017 in assay [12]; -0.0264 in assay [13]; -0.0183 in assay [14]; 0.0339 in assay [15]; -0.0209 in assay [16]. In assay [17], the Bliss excess was -0.096.
Consider `COc1nnc2ccc(N3CCC(c4ccc(OCCN5CCN(C)C(=O)[C@H]5C)cc4)CC3)nn12` [AZD5153] + CN(CC[C@H](CSC1=CC=CC=C1)NC2=C(C=C(C=C2)S(=O)(=O)NC(=O)C3=CC=C(C=C3)N4CCC(CC4)[C@H](C5=CC=CC=C5C6=CC=C(C=C6)Cl)O)S(=O)(=O)C(F)(F)F)CCO [AZD4320] (first compound max 1 µM, 7x7, partner max 1 µM), for which the Bliss excess was 0.0229 in assay [1]; 0.0607 in assay [19]; 0.197 in the assay with IGR-1 (Melanoma); -0.0442 in assay [3]; 0.128 in assay [18]; -0.0014 in assay [6]. In addition, the Bliss excess in [7] is 0.039; in assay [9], -0.0111; in [12], -0.0091; in [14] it was 0.0047; in assay [17], -0.0212.
For the compound `C[C@@H](c1ccc2nccn2c1)n1nnc2ncc(-c3cnn(C)c3)nc21` [Savolitinib] + CN(CC[C@H](CSC1=CC=CC=C1)NC2=C(C=C(C=C2)S(=O)(=O)NC(=O)C3=CC=C(C=C3)N4CCC(CC4)[C@H](C5=CC=CC=C5C6=CC=C(C=C6)Cl)O)S(=O)(=O)C(F)(F)F)CCO [AZD4320] (first compound max 1 µM, 7x7, partner max 1 µM), the Bliss excess in assay [1] is -0.0347; in assay [19], -0.042; in the assay with IGR-1 (Melanoma), -0.0913; in assay [3] it was -0.0531; in assay [18], -0.0558; in assay [6] it was -0.0349. Besides, the Bliss excess in assay [7] is -0.0329; in assay [9] it was -0.0245; in assay [12], -0.0468; in [14], -0.0331; in assay [17] it was -0.053.
For the compound `CN(CCO)CC[C@H](CSc1ccccc1)Nc1ccc(S(=O)(=O)NC(=O)c2ccc(N3CCC([C@@H](O)c4ccccc4-c4ccc(Cl)cc4)CC3)cc2)cc1S(=O)(=O)C(F)(F)F` [AZD4320] + Cn1cnc2c(F)c(Nc3ccc(Br)cc3Cl)c(C(=O)NOCCO)cc21 [Selumetinib] (first compound max 1 µM, 7x7, partner max 3 µM), the Bliss excess in assay [1] came to 0.0371; in assay [19], 0.0042; in the assay on IGR-1 (Melanoma), 0.143; in assay [3] it was 0.007; in assay [4] it was 0.0153; in [18] it was 0.0878. For the same compound, the Bliss excess in assay [5] is 0.0246; in [6] it was 0.0645; in assay [7], 0.0496; in [8] it was -0.0013; in assay [9] it was 0.02; in [10], -0.0067. The Bliss excess in [11] is -0.0419; in [12], 0.0441; in [13] it was -0.0482; in [14] it was 0.0119; in [15], -0.114; in assay [16] it was 0.0357. In addition, the Bliss excess in [17] was found to be 0.0131.
As for `CC(=O)c1c(C)c2cnc(Nc3ccc(N4CCNCC4)cn3)nc2n(C2CCCC2)c1=O` [Palbociclib] + CN(CC[C@H](CSC1=CC=CC=C1)NC2=C(C=C(C=C2)S(=O)(=O)NC(=O)C3=CC=C(C=C3)N4CCC(CC4)[C@H](C5=CC=CC=C5C6=CC=C(C=C6)Cl)O)S(=O)(=O)C(F)(F)F)CCO [AZD4320] (first compound max 10 µM, 7x7, partner max 1 µM), the Bliss excess is -0.0765 in [1]; 0.0632 in assay [19]; -0.0387 with IGR-1 (Melanoma); -0.0899 in assay [3]; -0.119 in assay [18]; -0.0608 in [6]. Moreover, the Bliss excess in assay [7] was -0.0299; in [9], -0.0271; in assay [12], -0.136; in assay [14], 0.0149; in assay [17] it was -0.0811.
Turning to `Cc1c2c(nn1C)CSCc1cc(n(C)n1)CSc1cc(c3ccccc3c1)OCCCc1c(C(=O)O)n(C)c3c-2c(Cl)ccc13` [AZD5991] + C=CCn1c(=O)c2cnc(Nc3ccc(N4CCN(C)CC4)cc3)nc2n1-c1cccc(C(C)(C)O)n1 [AZD1775] (first compound max 1 µM, partner max 1 µM), the Bliss excess in assay [1] is -0.0132; in [2], -0.0115; in [19], -0.0247; in the assay on IGR-1 (Melanoma) it was 0.061; in [3] it was -0.0674; in assay [4], -0.0229. Moreover, the Bliss excess was 0.017 in assay [18]; -0.0307 in assay [5]; -0.0079 in assay [6]; -0.0329 in assay [7]; -0.0812 in assay [8]; -0.0045 in assay [9]. Moreover, the Bliss excess in [10] is -0.0637; in assay [12], 0.0046; in assay [13], -0.0165; in assay [14] it was -0.0438; in [15], -0.038; in [16] it was -0.024. Further, in assay [17], the Bliss excess was -0.054.
